Data from the supplement of paper PMC10733146.

Columns and labels:
Test in all cases: viability relative to DMSO control (fraction); higher = less drug effect (more viable cells)
Details in all cases: 48 h
[1] = compound: CC(C)(C)OC(=O)Nc1ccc(-c2cc(C(=O)NCCCCCCC(=O)NO)no2)cc1
Method in brief: (§1)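 In 384-well plates with compounds pre-plated at five concentrations (one well per concentration), primary mononuclear tumour cells were plated at 4 × 10^4 cells per well. The cells came from blood or bone marrow by Ficoll isolation or from processed lymph node, and were used fresh or cryopreserved. Culture ran for 48 h at 37 °C and 5% CO2 in RPMI-1640 containing penicillin/streptomycin, L-glutamine and human serum. Viability was read as CellTiter-Glo luminescence, normalised to the median of 16 inner DMSO wells.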

Vemurafenib = compound: CCCS(=O)(=O)Nc1ccc(F)c(C(=O)c2c[nH]c3ncc(-c4ccc(Cl)cc4)cc23)c1F [Vemurafenib]
Method in brief: as §1

Rigosertib = compound: COc1cc(OC)c(/C=C/S(=O)(=O)Cc2ccc(OC)c(NCC(=O)O)c2)c(OC)c1 [Rigosertib]
Method in brief: as §1

[2] = compound: OCc1ccc(-c2ccc(-c3ccc(CO)s3)o2)s1
Method in brief: as §1

Test System	viability ([1]; 0.024 µM)	viability ([1]; 0.12 µM)	viability ([1]; 0.6 µM)	viability ([1]; 3 µM)	viability ([1]; 15 µM)	viability (Vemurafenib; 0.024 µM)	viability (Vemurafenib; 0.12 µM)	viability (Vemurafenib; 0.6 µM)	viability (Vemurafenib; 3 µM)	viability (Vemurafenib; 15 µM)	viability (Rigosertib; 0.008 µM)	viability (Rigosertib; 0.04 µM)	viability (Rigosertib; 0.2 µM)	viability (Rigosertib; 1 µM)	viability (Rigosertib; 5 µM)	viability ([2]; 0.024 µM)	viability ([2]; 0.12 µM)	viability ([2]; 0.6 µM)	viability ([2]; 3 µM)	viability ([2]; 15 µM)
primary AML patient cells (S056)	0.672	0.425	0.241	0.067	0.0413	1.02	0.764	1.14	1.08	1.07	0.865	0.796	0.82	0.802	0.735	0.889	0.675	0.185	0.107	0.0797
primary AML patient cells (S009)	0.892	0.857	0.655	0.294	0.136	0.931	0.997	0.94	1.06	1.05	0.994	0.961	0.994	0.936	0.934	0.732	0.555	0.454	0.391	0.205
primary ALL patient cells (S048)	0.479	0.287	0.104	0.0485	0.0165	0.967	1.05	0.931	1.04	1.29	0.879	0.925	0.84	0.712	0.314	0.718	0.687	0.455	0.188	0.0399
primary FL patient cells (S087)	0.983	0.894	0.838	0.723	0.466	1.01	1.03	0.974	0.999	1.04	1.07	1.05	1	0.896	0.851	0.941	0.913	0.927	0.888	0.487
primary AML patient cells (S079)	0.872	0.743	0.574	0.168	0.085	0.945	1.04	1	1.18	1.14	0.9	0.941	0.793	0.874	0.749	0.75	0.282	0.0906	0.068	0.05
primary AML patient cells (S025)	0.923	0.93	0.807	0.429	0.331	0.889	0.977	0.997	1.08	1.15	0.947	0.892	0.958	0.83	0.837	0.984	0.999	0.755	0.516	0.185
primary DLBCL patient cells (S082)	0.786	0.499	0.13	0.0294	0.0162	0.979	0.989	0.988	1.03	1.05	0.954	0.973	0.931	0.771	0.524	0.929	1.02	0.84	0.904	0.622
primary AML patient cells (S017)	1.07	0.968	0.746	0.205	0.135	0.94	1.03	0.975	1.08	1.07	0.988	0.968	0.945	0.949	0.954	0.639	0.425	0.097	0.0638	0.0621
primary AML patient cells (S089)	0.477	0.406	0.306	0.0737	0.0256	0.942	0.92	0.845	0.954	0.699	0.983	0.862	0.498	0.716	0.686	0.832	0.671	0.672	0.324	0.128
primary MCL patient cells (S063)	1.05	1	0.859	0.24	0.0207	1.02	1.01	1.04	1.04	1.04	0.919	1.06	0.885	0.969	0.521	1.04	1.04	1	0.933	0.51
primary AML patient cells (S081)	0.919	0.864	0.754	0.194	0.0314	0.895	0.962	0.91	1.01	0.98	0.968	0.925	0.973	0.964	0.775	0.961	0.725	0.169	0.114	0.0391
